# Marks after values point to notes of the source that are not given here.
# Assays:
# [1] = Stability of solid state forms (storage, drying), XRPD; format: physicochemical
# Description: Samples were assessed for stability under ambient or static storage conditions of 25° C./[…] and 40° C./75% RH for 7 or 10 days. The samples were then re-analyzed by XRPD. Subsequent XRPD analysis results for the crystalline forms are described below: […]
# [2] = Gravimetric Vapor Sorption (GVS); format: physicochemical; details: 25° C., w/w
# Description: Sorption isotherms were obtained using a SMS DVS Intrinsic moisture sorption analyzer, controlled by DVS Intrinsic Control software. The sample temperature was maintained at 25° C. by the instrument controls. The humidity was controlled by mixing streams of dry and wet nitrogen, with a total flow rate of 200 ml/min. The relative humidity was measured by a calibrated Rotronic probe (dynamic range of 1.0-100% RH), located near the sample. The weight change, (mass relaxation) of the sample as a function of % RH was constantly monitored by a microbalance (accuracy ±0.005 mg).
# Typically, 5-30 mg of sample was placed in a tared mesh stainless steel basket under ambient conditions. The sample was loaded and unloaded at 40% RH and 25° C. (typical room conditions). A moisture sorption isotherm was performed as outlined below (2 scans per complete cycle). The standard isotherm was performed at 25° C. at 10% RH intervals over a 0-90% RH range. Typically, a double cycle (4 scans) was carried out. Data analysis was carried out within Microsoft Excel using the DVS Analysis Suite.
# [3] = XRPD re-analysis after GVS isotherm; format: physicochemical; details: after isotherm at 90% RH and 25° C.
# Description: The samples were recovered after completion of the isotherm experiment at 90% RH and 25° C. and re-analyzed by XRPD.
# [4] = Competitive slurries Form 1 / Form 2 (thermodynamic stability); format: physicochemical; details: water activities 0.4-0.8; 5, 25, 50° C.
# Description: Competitive slurries aiming to determine the order of stability between Form 1 and Form 2 were performed in a range of water activities (0.4-0.8).
# Crystalline Form 1 (2 g) and Crystalline Hydrate Form 2 (2 g) were lightly ground together using a mortar and pestle and then mixed using a roller mixer for approximately 2 hours. An XRPD was collected on this sample.
# Saturated solutions at 5° C./25° C. were prepared by suspending the mixed sample (200 mg) in 4 ml of the selected solvent and saturated solutions were prepared at 50° C. by suspending the mixed sample (100 mg) in 1 ml of the selected solvent. The saturated solutions were left stirring for 3 hrs at 25° C. and 50° C. The saturated solutions at 25° C. were filtered and split into solutions at 5° C. and 25° C. The mixed sample (50 mg) was added to the filtered solutions. Two control samples of Form 2 (50 mg) were prepared in 1 ml of acetone:water (99:1) and EtOH:water (95:5) and left stirring at 5° C., 25° C. and 50° C.
# CPT2-deficient myoblasts = details: Djouadi 2005; cited from earlier work
# CPT2 = details: patient fibroblasts, mild CPT2 mutations; Djouadi 2003; cited from earlier work
# [5] = tested on: patient fibroblasts (VLCAD, LCHAD, TFP deficiencies); details: Goddeeris 2017; cited from earlier work
# [6] = Variable temperature XRPD (heating); format: physicochemical; details: heating to 110° C.
# Description: For variable temperature (VT-XRPD) experiments the samples were prepared and analyzed in an Anton Paar chromed sample holder. A heating/cooling rate of 10° C./min was used with a 2 min isothermal hold before the measurement started. The measurement parameters are as per the standard screening data collection method (detailed above). Measurements were taken at the following temperatures: […]
# [7] = listed as crystalline Form 4 of Compound II
SMILES,XRPD form after storage ([1]; 25° C./97% RH/7 days),XRPD form after storage ([1]; 40° C./75% RH/7 days),Reversible Water Uptake between 0-90% RH [2],Solid State Form After GVS (XRPD) [3],FAO (CPT2-deficient myoblasts),other results
"Cc1cc(OC/C=C(/c2ccc(F)cc2)c2ccc(C#CCN3CCOCC3)cc2)ccc1OCC(=O)[O-].[Na+] [Form 1, sodium (E)-2-(4-((3-(4-fluorophenyl)-3-(4-(3-morpholinoprop-1-yn-1-yl)phenyl)allyl)oxy)-2-methylphenoxy)acetate]",Form 2,Unchanged (Form 1),~13.0% †,Unchanged (Form 1),,time to complete conversion to Form 2 ([1]; 25° C./97% RH): 4 weeks; Reversible Water Uptake between 0-90% RH ([2]; listed as crystalline Form 1 of Compound II): ~13.0%; form found in competitive slurries of Form 1 and Form 2 [4]: present in most cases with no evidence of Form 2
"CC(C)(Oc1ccc(CCNC(=O)c2ccc(Cl)cc2)cc1)C(=O)O [bezafibrate, 2-(4-{2-[(4-Chlorobenzoyl)amino]ethyl}phenoxy)-2-methylpropanoic acid]",,,,,able to restore FAO,activity of the deficient enzyme (CPT2) (CPT2): pharmacological enhancement
CC(C)(Sc1ccc(CCN(CCCCC2CCCCC2)C(=O)NC2CCCCC2)cc1)C(=O)O [GW 7647],,,,,had no effect,
Cc1cnc(-c2ccc(C(F)(F)F)cc2)n1Cc1ccccc1OCCC[C@@H](C)CC(=O)O [MA-0211],,,,,,fatty acid oxidation [5]: improvements
"Cc1cc(OC/C=C(/c2ccc(F)cc2)c2ccc(C#CCN3CCOCC3)cc2)ccc1OCC(=O)[O-].[Na+] [Form 4, sodium (E)-2-(4-((3-(4-fluorophenyl)-3-(4-(3-morpholinoprop-1-yn-1-yl)phenyl)allyl)oxy)-2-methylphenoxy)acetate]",Form 2,Form 1,~23%,Form 2,,"XRPD form after storage ([1]; 25° C./97% RH/7 days, listed as crystalline Form 4 of Compound II): converts to Form 2; XRPD form after storage ([1]; 40° C./75% RH/7 days, listed as crystalline Form 4 of Compound II): converts to Form 1; Reversible Water Uptake between 0-90% RH [2, 7]: ~23%; XRPD after heating [6]: unchanged; Solid State Form After GVS (XRPD) [3, 7]: converts to Form 2"
